One assay deals with THP1-Dual-STING KO cells. The assay is described as follows: Effects on THP1-Dual-STING KO cells (activity of the IRF pathway). The class given is cell-based. The settings on record: STING gene homozygous deficient THP1-Dual cells, about 24 hours. Here is the method: STING gene homozygous deficient THP1-Dual cells (THP1-Dual-STING KO cells (Invivogen) were suspended in RPMI medium to prepare 2×10^6 cells/mL cell suspension. 50 μL of cell suspensions were dispensed into a 96-well plate, to which 50 μL of 6 to 20,000 nM compound solutions were further added, followed by incubation at 37° C. for about 24 hours. 10 μL of the cell suspensions were collected from each well, which were mixed with 50 μL of Quanti-luc (Invivogen), and then the activity of the IRF pathway was measured by detecting luminescence using a microplate reader.

Assay [1] relates to colon cancer cell line MC38. In words: Anti-tumor effect in a subcutaneously colon cancer cell line MC38 tumor-bearing mouse model (Example 17). It is filed as in vivo, mice (C57/BL6). The settings on record: 3 mg/kg, administered 7 days after MC38 transplantation, measured until Day 26. Here is the method:
Colon cancer cell line MC38 derived from C57/BL6 mice were subcutaneously transplanted to right flank region of syngeneic mice (C57/BL6, female, 6 weeks old (Charles River Japan)) (herein, the day of transplantation was designated as Day 0) to prepare subcutaneously MC38 tumor-bearing mice. Seven days after transplantation, the subcutaneously MC38 tumor-bearing mice were grouped based on tumor volume, and the Vehicle group (n=8) and group to which the compound shown in Example 1 (3 mg/kg, n=6) was administered were set. The changes in tumor volume were continuously measured until 26 days after transplantation (Day 26). The tumor volume was calculated by the following formula:
[Tumor volume (mm^3)]=[major axis (mm)]×[minor axis (mm)]^2×0.5

The next assay deals with T1, IDO1 (Homo sapiens, UniProt P14902).
T1 construct: purchased BPS Bioscience
In words: Evaluation of IDO1 inhibitory activity (IDO1 Fluorogenic Inhibitor Screening Assay Kit). It is filed as biochemical. The settings on record: compound solutions of 0.6, 2, 6, 20, 60 and 200 μmol/L added. On the procedure: The evaluation of IDO1 inhibitory activity was carried out using the IDO1 Fluorogenic Inhibitor Screening Assay Kit (BPS Bioscience). Specifically, IDO1 Fluorogenic Reaction Solution was dissolved, of which 180 μL were added to each well. Then, 10 μL of the compounds at the respective concentrations of 0.6, 2, 6, 20, 60 and 200 μmol/L were added thereto. Further, after adding 10 μL of IDO1 His-Tag solution thereto, and the mixture thereof was incubated at room temperature for 1 hour, and then 20 μL of Fluorescence Solution was added thereto, and the mixture thereof was incubated at 37° C. for 4 hours. After standing them at room temperature for 10 minutes, the fluorescence was measured using a microplate reader (excitation: 400 nm, emission: 510 nm).

Assay [2] relates to BTK, KDR, each subtype of PKCα to t, each CDK of CDK2 to 9, FAK, TIE2, RAF1 and BRAF. The assay is described as follows: Evaluation of inhibitory activity against various kinases (mobility shift, LabChip). The class given is biochemical. The settings on record: 4 μmol/L test substance solution at 4 times the final concentration. Here is the method: 4 μmol/L of the test substance solution (the compound in the present invention produced in Example 1) (at 4 times the final concentration) was prepared by dissolving it to the assay buffer (20 mmol/L HEPES, 0.01% Triton X-100, 1 mmol/L DTT, pH 7.5). 4 μmol/L of the substrate/ATP/metal solution (at 4 times the final concentration) was prepared by dissolving it to the kit buffer (20 mmol/L HEPES, 0.01% Triton X-100, 5 mmol/L DTT, pH 7.5). Various kinase solutions at twice the final concentration were prepared by dissolving them to the assay buffer. 5 μL of the test substance solution, 5 μL of the substrate/ATP/metal solution and 10 μL of the kinase solution were mixed in wells of a polypropylene 384-well plate, and the mixture thereof was reacted at room temperature for 1 to 5 hours. The reaction was stopped by adding 70 μL of the termination buffer (QuickScout Screening Assist MSA; Carna Biosciences). The substrate peptide and phosphorylated peptide in the reaction solution were separated and quantified by LabChip system (Perkin Elmer). The kinase reaction was evaluated based on the product ratio (P/(P+S)) calculated from the peak height (S) of the substrate peptide and the peak height (P) of the phosphorylated peptide. The various kinases used in this evaluation are as follows:
BTK, KDR, each subtype of PKCα to t, each CDK of CDK2 to 9, FAK, TIE2, RAF1 and BRAF.

T1 sequence (P14902 whole entry): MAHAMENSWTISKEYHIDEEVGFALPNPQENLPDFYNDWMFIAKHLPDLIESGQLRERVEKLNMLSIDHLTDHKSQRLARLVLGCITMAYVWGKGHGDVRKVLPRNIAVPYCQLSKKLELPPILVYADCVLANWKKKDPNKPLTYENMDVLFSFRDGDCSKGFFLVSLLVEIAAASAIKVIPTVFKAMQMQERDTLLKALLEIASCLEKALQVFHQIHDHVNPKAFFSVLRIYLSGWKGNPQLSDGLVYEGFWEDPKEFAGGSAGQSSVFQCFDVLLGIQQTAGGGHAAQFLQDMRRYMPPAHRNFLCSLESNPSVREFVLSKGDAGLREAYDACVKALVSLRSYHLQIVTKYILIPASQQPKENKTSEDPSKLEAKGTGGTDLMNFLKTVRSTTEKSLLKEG

For the molecule `COC(=O)c1cc(-c2ncc(-c3cn[nH]c3)c3onc(N)c23)c(F)cc1N` [Example 1, methyl 2-amino-5-(3-amino-7-(1H-pyrazol-4-yl)isoxazolo[4,5-c]pyridin-4-yl)-4-fluorobenzoate], the IRF activating effect entry in the assay on THP1-Dual-STING KO cells is “no IRF activating effect”. For the same molecule, in assay [1], the “tumor growth (tumor volume)” value is reported as “almost completely suppressed the tumor growth”. In addition, the IDO1 inhibitory activity entry on IDO1 is “no IDO1 inhibitory activity”. In addition, in assay [2], the “inhibitory activity against various kinases” value is listed as “no significantly inhibit activities”.

The values are drawn from patent publication US20230151024A1, “STING AGONISTIC COMPOUND” (ONO PHARMACEUTICAL CO., LTD., priority 2020, published 2023).
